Test results taken from US12629364B2, “Methods of treating cancers overexpressing CARM1 with EZH2 inhibitors and platinum-based antineoplastic drugs” (The Wistar Institute of Anatomy and Biology, priority 2016, dated 2026).
Entries after “also recorded” stand apart in the source; their conditions may differ.

Tests used:
[1] = test system: CARM1-expressing cell lines (A1847, OVCAR10, and PEO4); experiment: Colony formation assay / GSK126 response curves, CARM1-expressing ovarian cancer cell lines; format: cell-based, Human
Source text: FIG. 5 illustrates the results of a colony formation assay with a panel of normal and ovarian cancer cell lines in the presence of GSK126.
FIG. 7 illustrates GSK 126 response curves in a panel of normal and ovarian cancer cell lines. Error bars indicate standard error (S.E.) for n=3. *, p≤0.05.
FIG. 8 illustrates IC50 results for the panel of normal and ovarian cancer cell lines.
(§1) FIG. 33 illustrates relative growth of the indicated HOSE, FTE, and EOC cancer cell lines with high or low CARM1 expression treated with 10 μM GSK126 or vehicle in a colony formation assay as determined by NIH Image J quantification.
(§2) 500 to 5,000 cell were plated into a 24 well tissue culture plate and treated with the indicated compounds. Medium was changed every three days with appropriate drug doses for 12 days or until control wells became confluent. Colonies were washed twice with PBS and fixed with 10% methanol and 10% acetic acid in distilled water. Fixed colonies were stained with 0.005% crystal violet. Integrated density was measured using NIH ImageJ software.

HOSE or FTE cells = experiment: Colony formation assay, normal HOSE and FTE cells; format: cell-based, Human; settings: 10 μM
Experimental: as §1, §2

[2] = test system: CARM1-expressing A1847 tumors; experiment: Subcutaneous xenograft, CARM1-expressing A1847 cells; format: in vivo, NSG mice; settings: 50 mg/kg daily i.p., three weeks
Experimental: FIGS. 73 to 75 illustrate that EZH2 inhibition suppressed the growth of CARM1-expressing ovarian tumors in vivo. FIG. 73 illustrates images of tumors dissected from control or GSK126 treated mice. CARM1-high A1847 cells were injected subcutaneously into immunocompromised NSG mice (n=5/group). Tumors were allowed to establish for one week before the mice were randomized into two different treatment groups. Mice were treated with vehicle control or GSK126 (50 mg/kg daily) for an additional three weeks. At the end of treatment, the mice were euthanized. Bar=1 cm. FIG. 74 illustrates a difference in tumor size measured as a surrogate for tumor burden from the control and GSK 126 treated mice at the indicated time point. FIG. 75 illustrates a difference in tumor weight measured as a surrogate for tumor burden from control and GSK 126-treated mice. The mice were injected with CARM1 knockout A1847 cells.
The protocols were approved by the Institutional Animal Care and Use Committee (IACUC). 5×10^6 control A1847 or A1847 CARM1 knockout cells were unilaterally injected subcutaneously into 6-8-week old female immunocompromised NSG mice (n=5 per group). […] Tumor size was measured every 3 days for 3 weeks. At end of the experiments, tumors were surgically dissected and tumor burden was calculated based on tumor weight.

[3] = test system: CARM1-expressing A1847 tumors; experiment: Intrabursal orthotopic xenograft, CARM1-expressing A1847 cells; format: in vivo, NSG mice; settings: 50 mg/kg daily i.p., three weeks
Experimental: FIG. 76 illustrates images of reproductive tracks with tumors from control or GSK126 treated mice. CARM1-high A1847 ovarian cancer cells were unilaterally injected into the ovarian bursa sac of immunocompromised mice (n=5/group). Tumors were allowed to establish for one week before the mice were randomized into two different treatment groups. Mice were treated with vehicle control or GSK126 (50 mg/kg daily) for an additional three weeks. At the end of treatment, the mice were euthanized.
FIG. 77 illustrates tumor weights for the tumors described in FIG. 76. Tumor weight was measured as a surrogate for tumor burden from the control and GSK126 treated mice.
FIG. 78 illustrates the percent survival for the animals treated in FIG. 76. After stopping treatment, the mice from the indicated groups were followed for survival. […] P-value was calculated by log-rank test.
The protocols were approved by the Institutional Animal Care and Use Committee (IACUC). For in vivo experiments, the sample size of 5 mice per group was determined based on the data shown from in vitro experiments. […] At the end of the experiments, tumors were surgically dissected and tumor burden was calculated based on tumor weight. For survival experiments, after stopping the treatment, the mice were followed for mortality or when the tumor burden reached 10% of body weight as determined by The Wistar Institute IACUC guideline.

CARM1-expressing tumors = experiment: IHC and qRT-PCR of dissected CARM1-expressing tumors; format: in vivo, NSG mice; settings: IHC
Experimental: FIG. 79 illustrates immunohistochemical analysis for serial sections of tumors dissected from the indicated treatment groups where the tumor sections were stained for H3K27Me3, EZH2, cleaved caspase 3, and Ki67. Scale bar=50 μm.
FIG. 80 illustrates histological scoring (H-score) of the indicated proteins that was calculated for 3 separate fields from 5 tumors from 5 individual mice from each of the indicated groups.
FIG. 81 illustrates the expression of the indicated EZH2/BAF155 target genes that was determined by qRT-PCR in the tumors dissected from the indicated treatment groups.

[4] = test system: tumors formed by CARM1 knockout cells; experiment: IHC and qRT-PCR of dissected CARM1 knockout tumors; format: in vivo, NSG mice
Experimental: FIGS. 82 to 84 illustrate immunohistochemical analysis for serial sections of tumors dissected from mice injected with CARM1 knockout A1847 cells. Serial sections of tumors dissected from the indicated treatment groups described in FIGS. 73 to 75 were subjected to immunohistochemical staining for H3K27Me3, E7H2, cleaved caspase 3, and Ki67 (FIG. 82). Scale bar=50 μm. Histological score (H-score) of the indicated proteins was calculated for 3 separate fields from 5 tumors from 5 individual mice from each of the indicated groups (FIG. 83). Expression of the indicated EZH2/BAF155 target genes was determined by qRT-PCR in the tumors dissected from the indicated treatment groups (FIG. 84).

[5] = clinical trials for hematopoietic malignancies; cited from earlier work

CC[C@H](C)n1cc(C)c2c(C(=O)NCc3c(C)cc(C)[nH]c3=O)cc(-c3ccc(N4CCNCC4)nc3)cc21 [GSK126, (S)-1-(sec-butyl)-N-((4,6-dimethyl-2-oxo-1,2-dihydropyridin-3-yl)methyl)-3-methyl-6-(6-(piperazin-1-yl)pyridin-3-yl)-1H-indole-4-carboxamide]
relation of CARM1 expression level and cellular response ([1]; 10 μM, panel of EOC cell lines): correlation between CARM1 expression levels and cellular response
IC50 values from response curves ([1]; CARM1-expressing cell lines (A1847, OVCAR10, PEO4) versus panel of normal and ovarian cancer cell lines, values only in FIG. 8): Significantly reduced IC50 values
growth of normal cells (HOSE or FTE cells): did not affect the growth of either HOSE or FTE cells
tumor growth [2]: significantly inhibited the growth of CARM1-expressing tumors
tumor growth (tumor weight) [3]: significantly inhibited
H3K27Me3 staining (CARM1-expressing tumors): H3K27Me3 staining was decreased
expression of Ki67 ([4]; IHC): did not affect the expression of Ki67 and cleaved caspase 3
expression of cleaved caspase 3 ([4]; IHC): did not affect the expression of Ki67 and cleaved caspase 3
expression of EZH2/BAF155 target genes ([4]; qRT-PCR): did not increase the expression
tolerability in clinical trials [5]: used safely in clinical trials; also recorded: well-tolerated with limited toxicity
